Source: patent US20240122897A1, “DMT SALTS AND THEIR USE TO TREAT BRAIN INJURY” (ALGERNON PHARMACEUTICALS INC., priority 2021, published 2024)
Like-named read-outs stand apart in the source and are kept apart here.

How the values were obtained:
[1] = biological target: T1, Serotonin (5-Hydroxytryptamine) 5-HT2A (Homo sapiens, UniProt P28223); assay: biochemical; type: binding
T1 construct: purchased Eurofins Panlabs, Inc. 271650

sigma-1 receptor [2] = biological target: T2, sigma-1 receptor (Homo sapiens, UniProt Q99720)
T2 sequence (Q99720 whole entry): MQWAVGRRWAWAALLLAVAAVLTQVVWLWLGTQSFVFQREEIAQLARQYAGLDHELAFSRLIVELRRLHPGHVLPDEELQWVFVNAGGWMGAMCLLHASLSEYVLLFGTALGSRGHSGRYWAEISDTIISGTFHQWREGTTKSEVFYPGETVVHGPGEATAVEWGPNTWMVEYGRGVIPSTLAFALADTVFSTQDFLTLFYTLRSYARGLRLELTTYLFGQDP
Protocol: (§1) IC50 values were determined by a non-linear, least squares regression analysis using MathIQ™ (ID Business Solutions Ltd., UK). […] The Hill coefficient (nH), defining the slope of the competitive binding curve, was calculated using MathIQ™.
(§2) Biochemical assay results are presented as the percent inhibition of specific binding or activity. All other results are expressed in terms of that assay's quantitation method. Primary screening in duplicate with semi-quantitative data (e.g., estimated IC50, Ki and nH) are shown.

[3] = system: primary rat cortical neurons; assay: Neurite outgrowth of primary rat cortical neurons (MAP-2 immunocytochemistry)
sigma-1 receptor [4] = biological target: T2, sigma-1 receptor; assay: biochemical; conditions: for IC50: IC50, estimated, duplicate; for Ki: Cheng and Prusoff
Protocol: as §1, §2

[5] = system: cerebral ischemia-reperfusion injury; conditions: rat; cited from earlier work
[6] = in vivo, cited from earlier work

T1 sequence (P28223 whole entry): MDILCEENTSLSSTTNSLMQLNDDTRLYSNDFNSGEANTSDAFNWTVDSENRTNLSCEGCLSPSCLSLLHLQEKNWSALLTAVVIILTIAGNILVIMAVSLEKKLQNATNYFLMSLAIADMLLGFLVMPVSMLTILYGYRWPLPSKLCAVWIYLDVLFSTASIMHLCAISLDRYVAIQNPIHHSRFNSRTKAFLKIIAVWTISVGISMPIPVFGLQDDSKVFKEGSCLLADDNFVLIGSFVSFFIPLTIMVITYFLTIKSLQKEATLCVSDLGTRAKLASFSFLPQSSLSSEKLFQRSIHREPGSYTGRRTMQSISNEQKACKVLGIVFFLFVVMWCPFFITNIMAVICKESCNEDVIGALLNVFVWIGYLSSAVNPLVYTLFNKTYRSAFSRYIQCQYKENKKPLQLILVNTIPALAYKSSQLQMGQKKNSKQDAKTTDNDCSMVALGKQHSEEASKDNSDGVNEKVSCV

Row | SMILES | nH (Hill coefficient) [1] | % Inh. ([1]; 0.01 µM) | % Inh. ([1]; 0.03 μM) | % Inh. ([1]; 0.3 µM) | % Inh. ([1]; 1 μM) | IC50 [1] | Ki [1] | inhibition at 0.1 µM ([1]; read-out: % Inh.) | inhibition at 3 µM ([1]; read-out: % Inh.) | inhibition at 10 µM ([1]; read-out: % Inh.) | % Inh. (sigma-1 receptor [2]; 10 nM, 0.01 µM) | % Inh. (sigma-1 receptor [2]; 0.03 μM) | % Inh. (sigma-1 receptor [2]; 0.1 μM) | % Inh. (sigma-1 receptor [2]; 0.5 μM) | % Inh. (sigma-1 receptor [2]; 1 μM) | % Inh. (sigma-1 receptor [2]; 5 μM) | % Inh. (sigma-1 receptor [2]; 10 μM) | % Inh. (sigma-1 receptor [2]; 16 μM) | % Inh. ([1]; 0.003 µM) | nH (Hill coefficient) (sigma-1 receptor [2]) | other results
1 | CN(C)CCc1c[nH]c2ccccc12 [N,N-Dimethyltryptamine nicotinate] | 0.71 | 14% | 17% | 31% | 59% | 600 nM | 170 nM | 19% | 79% | 92% | −6% | −9% | −3% | −13% | 5% | 23% | 44% | 44% | – | – | inhibition at 0.003 µM ([1]; read-out: % Inh.): 7%; binding affinity to sigma-1-receptors (sigma-1 receptor [2]; at concentrations above 0.5 μM): good binding affinity
2 | CNC1(c2ccccc2Cl)CCCCC1=O (stereo not drawn) [Ketamine] | – | – | – | – | – | – | – | – | – | – | – | – | – | – | – | – | – | – | – | – | neurite outgrowth ([3]; 10 nM, 1-72 h stimulation): did not show any significant beneficial effects
3 | CN(C)CCc1c[nH]c2ccccc12.O=C(O)/C=C/C(=O)O [N,N-Dimethyltryptamine fumarate, reference compound] | 0.75 | – | – | 48% | – | 250 nM | 71 nM | – | – | – | – | 15% | 7% | 5% | 14% | – | 50% | – | 8% | 0.76 | % Inh. ([1]; 0.1 μM): 26%; % Inh. ([1]; 3 µM): 93%; % Inh. ([1]; 10 μM): 98%; inhibition at 0.01 µM ([1]; read-out: % Inh.): 15%; inhibition at 0.03 µM ([1]; read-out: % Inh.): 24%; inhibition at 1 µM ([1]; read-out: % Inh.): 76%; % Inh. (sigma-1 receptor [2]; 10 nM): 6%; IC50 (sigma-1 receptor [4]): 10200 nM; Ki (sigma-1 receptor [4]): 5280 nM; inhibition at 5 µM (sigma-1 receptor [4]; read-out: % Inh., 5 μM): 36%; inhibition at 16 µM (sigma-1 receptor [4]; read-out: % Inh., 16 μM): 59%
4 | CN(C)CCc1c[nH]c2ccccc12 [DMT, N, N-Dimethyltryptamine] | – | – | – | – | – | – | – | – | – | – | – | – | – | – | – | – | – | – | – | – | functional recovery [5]: improved; infarct (dead cells) volume [5]: reduced; oral availability ([6]; po): not orally available; half-life [6]: 15 min; neurite outgrowth of rat cortical neurons ([3]; DMT stimulation, overall): showed beneficial effects
5 | CN(C)CCc1c[nH]c2ccccc12 [N,N-Dimethyltryptamine pamoate] | 0.92 | 10% | 20% | – | 86% | 190 nM | 54 nM | 34% | 95% | 100% | −14% | −10% | 0% | 1% | 6% | 45% | – | 77% | 2% | 1.35 | 5HT2A binding compared to DMT fumarate [1]: improved 5HT2A binding; inhibition at 0.3 µM ([1]; read-out: % Inh.): 56%; affinity to sigma-1 receptors compared to DMT fumarate (sigma-1 receptor [2]; at concentrations above 1 μM): better affinity; IC50 (sigma-1 receptor [4]): 6310 nM; Ki (sigma-1 receptor [4]): 3250 nM; inhibition at 10 µM (sigma-1 receptor [4]; read-out: % Inh., 10 μM): 64%
